In PMC11062575 (Science Advances, 2024):
Where a chain is given by its changes, count along the chain named.

Experiments:
human TRPV3 C496A mutant = human TRPV3 C496A mutant (Homo sapiens, UniProt Q8NET8, C496A); conditions: C496A vs wild type
mouse TRPV3 Y564A = mouse TRPV3 Y564A vs wild type; cited from earlier work
wild-type human TRPV3 = biological target: T1, wild-type human TRPV3 (Homo sapiens, UniProt Q8NET8); assay: Fura-2AM ratiometric Ca2+ uptake measurements, wild-type TRPV3; assay type: cell-based
T1 sequence (Q8NET8 1-791 isoform Q8NET8-2): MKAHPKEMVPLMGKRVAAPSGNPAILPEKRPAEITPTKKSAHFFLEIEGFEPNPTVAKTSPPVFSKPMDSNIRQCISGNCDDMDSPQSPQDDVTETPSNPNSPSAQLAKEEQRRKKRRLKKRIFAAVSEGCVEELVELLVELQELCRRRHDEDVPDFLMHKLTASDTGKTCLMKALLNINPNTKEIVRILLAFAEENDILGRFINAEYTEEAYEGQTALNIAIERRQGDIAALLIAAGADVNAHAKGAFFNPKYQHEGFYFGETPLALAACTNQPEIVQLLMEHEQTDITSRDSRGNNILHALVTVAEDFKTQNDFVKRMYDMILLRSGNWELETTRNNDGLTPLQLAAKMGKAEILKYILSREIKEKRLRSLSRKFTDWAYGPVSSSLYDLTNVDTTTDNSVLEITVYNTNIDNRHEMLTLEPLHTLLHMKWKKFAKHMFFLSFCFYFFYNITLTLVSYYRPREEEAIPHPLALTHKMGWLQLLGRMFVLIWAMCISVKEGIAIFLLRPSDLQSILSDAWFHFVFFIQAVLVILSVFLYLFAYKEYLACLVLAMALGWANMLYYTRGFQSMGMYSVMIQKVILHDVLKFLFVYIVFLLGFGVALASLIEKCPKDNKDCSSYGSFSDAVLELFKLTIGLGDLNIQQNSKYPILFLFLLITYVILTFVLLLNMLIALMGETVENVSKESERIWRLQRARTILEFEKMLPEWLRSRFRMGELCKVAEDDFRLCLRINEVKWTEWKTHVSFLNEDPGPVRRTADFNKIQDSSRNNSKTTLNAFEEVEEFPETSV

human TRPV3 L557A mutant = biological target: T2, human TRPV3 L557A mutant (Homo sapiens, UniProt Q8NET8, L557A); assay: Fura-2AM Ca2+ uptake measurements, L557A mutant; assay type: cell-based
T2 sequence (Q8NET8 1-791 isoform Q8NET8-2 L557A): T1 sequence (Q8NET8 1-791 isoform Q8NET8-2) with L557A

Sequence of human TRPV3 C496A mutant (Q8NET8 1-791 isoform Q8NET8-2 C496A): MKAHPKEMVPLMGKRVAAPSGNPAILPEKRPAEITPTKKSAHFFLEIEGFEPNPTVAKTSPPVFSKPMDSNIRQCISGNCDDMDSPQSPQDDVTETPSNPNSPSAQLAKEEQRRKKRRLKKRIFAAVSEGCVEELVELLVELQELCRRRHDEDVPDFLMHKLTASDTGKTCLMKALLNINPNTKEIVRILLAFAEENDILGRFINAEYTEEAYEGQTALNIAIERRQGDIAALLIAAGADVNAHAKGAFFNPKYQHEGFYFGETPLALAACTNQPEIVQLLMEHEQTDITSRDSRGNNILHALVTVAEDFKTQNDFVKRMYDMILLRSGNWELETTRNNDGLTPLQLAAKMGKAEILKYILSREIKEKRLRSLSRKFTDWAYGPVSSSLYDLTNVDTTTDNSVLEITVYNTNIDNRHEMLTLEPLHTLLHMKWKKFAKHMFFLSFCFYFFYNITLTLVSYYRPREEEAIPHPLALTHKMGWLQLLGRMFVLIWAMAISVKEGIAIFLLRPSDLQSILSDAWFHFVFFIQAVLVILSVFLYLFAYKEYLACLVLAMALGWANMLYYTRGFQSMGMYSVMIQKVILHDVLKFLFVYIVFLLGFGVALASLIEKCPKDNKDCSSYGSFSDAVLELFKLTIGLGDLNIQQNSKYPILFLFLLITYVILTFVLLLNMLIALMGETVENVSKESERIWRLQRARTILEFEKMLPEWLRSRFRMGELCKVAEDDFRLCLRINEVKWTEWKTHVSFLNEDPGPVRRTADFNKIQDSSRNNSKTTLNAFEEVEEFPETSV

SMILES	activating potency enhanced compared to wild-type TRPV3 (human TRPV3 C496A mutant)	increase in 2-APB potency on Y564 substitution with alanine (mouse TRPV3 Y564A)	EC50 (wild-type human TRPV3)	maximum absolute value of the fluorescence intensity ratio (F340/F380) (wild-type human TRPV3; wild type, n = 3)	EC50 (human TRPV3 L557A mutant)	maximum absolute value of the fluorescence intensity ratio (F340/F380) (human TRPV3 L557A mutant; L557A, n = 3, P = 0.61 vs wild type)
NCCOB(c1ccccc1)c1ccccc1 [2-APB, 2-aminoethoxydiphenylborane]	~ 3 fold	20 fold	–	–	–	–
CCCc1cc(O)c2c(c1)OC(C)(C)[C@@H]1CCC(C)=C[C@@H]21 [THCV, tetrahydrocannabivarin]	–	–	6.1 ± 0.5 µM	5.29 ± 0.04	0.081 ± 0.001 µM	5.58 ± 0.47
